Results from US20210255193A1, “LYSINE REACTIVE PROBES AND USES THEREOF” (The Scripps Research Institute, priority 2017, published 2021).

Assays:
Assay in all cases: direct labeling of recombinantly expressed proteins by gel-based ABPP (WT vs lysine mutant)
Type in all cases: binding
Sin3a = target: T1, Sin3a (Homo sapiens, UniProt Q96ST3); conditions: Sin3a K155, KR mutant; 10 μM probe, 1 h
T1 construct: expressed in transfected cells; host or cells: HEK 293T
T1 sequence (Q96ST3 1-400): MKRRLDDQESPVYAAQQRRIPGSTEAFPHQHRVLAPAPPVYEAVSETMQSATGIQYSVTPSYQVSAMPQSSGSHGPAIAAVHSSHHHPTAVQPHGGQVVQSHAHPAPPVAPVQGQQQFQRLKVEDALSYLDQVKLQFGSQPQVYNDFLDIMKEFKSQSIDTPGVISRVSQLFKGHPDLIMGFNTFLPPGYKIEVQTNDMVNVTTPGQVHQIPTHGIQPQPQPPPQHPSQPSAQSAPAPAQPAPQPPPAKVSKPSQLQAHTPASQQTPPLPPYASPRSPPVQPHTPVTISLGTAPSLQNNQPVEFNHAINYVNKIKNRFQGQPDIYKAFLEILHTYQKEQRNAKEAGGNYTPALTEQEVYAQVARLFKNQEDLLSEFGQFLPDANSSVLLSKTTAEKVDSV
From the text: (§1) Subcloning and mutagenesis. Unless noted below, genes were amplified from cDNA prepared from low passage HEK 293T cells using the Ribozol RNA extraction reagent (Amresco) and the iScript Reverse Transcription Supermix kit (Bio-Rad). For the following proteins cDNA clones were used for amplification instead: PFKP (5180268, Dharmacon), HK1 (BC008730, transomic), SIN3A (BC137098, transomic), G6PD (BC000337, transomic) and TGIF1 (BC031268, transomic). Mouse CARM1 in pFLAG-CMV-6c was a kind gift from the Mowen lab (TSRI). NUDT2 was obtained as synthesized gene (IDT). DNA was amplified with custom forward and reverse primers using phusion polymerase (NEB, M0530S), digested with the indicated restriction enzyme and ligated into pFLAG-CMV-6c or pRK5 with the appropriate affinity tag. Lysine mutants were generated using QuikChange site-directed mutagenesis using Phusion® High-Fidelity DNA Polymerase and primers containing the desired mutations and their respective complements. The cloning of TTR and its K35A mutant has been described in Choi et al., “Chemoselective small molecules that covalently modify one lysine in a non-enzyme protein in plasma,” Nat. Chem. Biol. 6, 133-139 (2010). TTR was expressed in E. coli and purified as described. For gel-based experiments 1 μM TTR was added into 1 mg ml^−1 soluble MDA-MB-231 lysate.
(§2) Recombinant expression of proteins by transient transfection. HEK 293T cells were grown to 50% confluency in 10 ml DMEM supplemented with 10% fetal bovine serum (FBS), penicillin, streptomycin and glutamine in 10 cm tissue culture dishes. 3 μg of DNA was diluted in 500 μL DMEM and 30 μL of PEI (MW 40,000, 1 mg ml^−1, Polysciences) were added. The mixture was incubated at room temperature for 30 min and added dropwise to the cells. Cells were grown for 48 h at 37° C. with 5% CO2. Cells were washed with cold PBS, scraped with cold PBS and cell pellets were isolated by centrifugation (1,400 g, 3 min, 4° C.), and stored at −80° C. until use. Cell pellets were resuspended in PBS, lysed by sonication and fractionated (100,000 g, 45 min) to yield soluble and membrane fractions. The soluble fraction was adjusted to a final protein concentration of 1 mg ml^−1 for gel-based ABPP experiments.
(§3) Direct labeling of recombinantly expressed proteins by gel-based ABPP. 50 μL of soluble HEK 293T proteome (1 mg ml^−1) expressing the respective protein (WT or KR mutant) or transfected with an empty vector were treated with 10 μM of the indicated probe for 1 h at room temperature. The samples were analyzed as described in the previous section. For quantification of relative labeling of the different protein variants, the intensity of labeling was determined by quantifying the integrated optical intensity of the bands using ImageLab 5.2.1 software (BioRad).

HDHD3 = target: T2, HDHD3 (Homo sapiens, UniProt Q9BSH5); conditions: HDHD3 K15, KR mutant; 10 μM probe, 1 h
T2 construct: Flag; expressed in transfected cells; host or cells: HEK 293T
T2 sequence (Q9BSH5 1-251): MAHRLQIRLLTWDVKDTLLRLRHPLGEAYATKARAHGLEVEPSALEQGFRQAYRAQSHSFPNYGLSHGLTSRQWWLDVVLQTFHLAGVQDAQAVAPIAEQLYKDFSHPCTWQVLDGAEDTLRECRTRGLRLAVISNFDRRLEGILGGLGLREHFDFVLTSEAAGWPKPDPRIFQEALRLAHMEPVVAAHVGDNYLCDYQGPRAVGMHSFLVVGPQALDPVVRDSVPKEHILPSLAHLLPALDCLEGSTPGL
From the text: as §1, §2, §3

PFKP = target: T3, PFKP (Homo sapiens, UniProt Q01813); conditions: PFKP K688, KR mutant; 10 μM probe, 1 h
T3 construct: Flag; expressed in transfected cells; host or cells: HEK 293T, transient transfection, soluble lysate; cDNA clone 5180268 (Dharmacon)
T3 sequence (Q01813 1-784): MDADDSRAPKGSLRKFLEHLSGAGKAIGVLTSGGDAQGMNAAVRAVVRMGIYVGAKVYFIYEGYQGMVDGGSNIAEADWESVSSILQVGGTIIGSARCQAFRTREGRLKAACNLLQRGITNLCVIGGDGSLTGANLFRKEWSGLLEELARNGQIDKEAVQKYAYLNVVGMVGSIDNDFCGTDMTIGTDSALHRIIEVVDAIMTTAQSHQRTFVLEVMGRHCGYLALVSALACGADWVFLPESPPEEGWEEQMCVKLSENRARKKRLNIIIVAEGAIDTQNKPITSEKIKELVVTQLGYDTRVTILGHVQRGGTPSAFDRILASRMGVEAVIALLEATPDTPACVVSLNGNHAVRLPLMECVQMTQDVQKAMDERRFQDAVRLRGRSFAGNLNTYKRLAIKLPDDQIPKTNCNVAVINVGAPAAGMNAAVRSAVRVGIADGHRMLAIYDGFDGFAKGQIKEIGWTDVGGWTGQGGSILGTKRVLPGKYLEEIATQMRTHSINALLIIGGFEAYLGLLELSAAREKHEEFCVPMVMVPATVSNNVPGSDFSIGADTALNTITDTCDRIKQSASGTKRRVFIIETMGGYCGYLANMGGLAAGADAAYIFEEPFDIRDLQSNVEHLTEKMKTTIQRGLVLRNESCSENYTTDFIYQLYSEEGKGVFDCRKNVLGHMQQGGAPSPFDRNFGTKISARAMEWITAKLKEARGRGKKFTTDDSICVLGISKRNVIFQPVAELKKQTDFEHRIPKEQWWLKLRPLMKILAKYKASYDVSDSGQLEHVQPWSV
From the text: as §1, §2, §3

Structure (SMILES)	labeling of WT vs mutant protein by probe (Sin3a)	labeling of WT vs mutant protein by probe (HDHD3)	labeling of WT vs mutant protein by probe (PFKP)
C#CCCC(=O)Oc1c(F)c(F)c(S(=O)(=O)[O-])c(F)c1F.[Na+] [probe 1, reference compound]	PD (the WT labeled more than the mutant (>2x difference quantified))	HD (the WT labeled more than the mutant (>4x difference quantified))	HD (the WT labeled more than the mutant (>4x difference quantified))
C#CCCC(=O)Oc1c(F)c(F)c(F)c(F)c1F [probe 6, Pentafluorophenyl 4-pentynoate]	HD (the WT labeled more than the mutant (>4x difference quantified))	HD (the WT labeled more than the mutant (>4x difference quantified))	HD (the WT labeled more than the mutant (>4x difference quantified))
C#Cc1ccc(C(=O)Oc2ccccc2[N+](=O)[O-])cc1 [probe 10, 2-Nitrophenyl 4-ethynylbenzoate]	HD (the WT labeled more than the mutant (>4x difference quantified))	HD (the WT labeled more than the mutant (>4x difference quantified))	HD (the WT labeled more than the mutant (>4x difference quantified))
C#Cc1ccc(C(=O)Oc2c(F)c(F)cc(F)c2F)cc1 [probe 12, 2,3,5,6-Tetrafluorophenyl 4-ethynylbenzoate]	HD (the WT labeled more than the mutant (>4x difference quantified))	HD (the WT labeled more than the mutant (>4x difference quantified))	HD (the WT labeled more than the mutant (>4x difference quantified))
C#Cc1ccc(C(=O)Oc2c(F)c(F)c(F)c(F)c2F)cc1 [probe 13, Pentafluorophenyl 4-ethynylbenzoate]	HD (the WT labeled more than the mutant (>4x difference quantified))	HD (the WT labeled more than the mutant (>4x difference quantified))	HD (the WT labeled more than the mutant (>4x difference quantified))
Cc1cc(C)n2c1C=C1C=CC(CCC(=O)Oc3c(F)c(F)c(S(=O)(=O)[O-])c(F)c3F)=[N+]1[B-]2(F)F.[Na+] [probe 18, reference compound]	HD (the WT labeled more than the mutant (>4x difference quantified))	HD (the WT labeled more than the mutant (>4x difference quantified))	PD (the WT labeled more than the mutant (>2x difference quantified))
